This note sets out measurements from patent US6906061B2, “Pharmaceutical agent containing Rho kinase inhibitor” (Mitsubishi Pharma Corporation, priority 1996, dated 2005).

As a reminder, the inhibition is how much of the control response was suppressed. Read a low inhibition as little suppression.

For test [1], the system named is normal human umberical vascular endothelial cells. In words: Inhibition of angiogenesis (lumen formation in vascular endothelial cells). The conditions noted are these: 18 hours, compared with the control, number rises with inhibition of lumen formation. The class given is cell-based. The procedure:
Inhibition of Angiogenesis
The inhibition of angiogenesis was evaluated by using the inhibition of lumen formation in vascular endothelial cell as an index. To be specific, normal human umberical vascular endothelial cells (KURABO […] LTD.) were suspended in E-GMUV medium at 5.5×10^4 cells/ml and 400 μl therefrom was added on matrigel plate (EHS sarcoma-derived reconstructed basement membrane, Collaborative Biomedical Products). Then, the test compound (1 mM solution, 4 μl) was added and the cells were incubated at 37° C. under 5% CO2 gas for 18 hours. After the completion of the incubation, the number of lumen per predetermined area was counted under a microscope. Inasmuch as the number of lumen increases by the inhibition of lumen formation, the test compound was evaluated by comparison of the number of lumen with the control.

Another test concerns mouse femoral bone. Description: Inhibition of bone resorption (in vitro), mouse femoral bone. As to conditions: 6 days incubation of ICR mouse femoral bone. The procedure:
Inhibition of Bone Resorption (in vitro)
The determination of the in vitro inhibition of bone resorption using mouse femoral bone followed the method below.
The femoral bone of 3-6 week old male ICR mice was aseptically removed, and bone marrow cavity was washed with F12 medium, containing 10% heat inactivated fetal bovine serum, penicillin G calcium (100 units/ml), kanamycin sulfate (60 μg) and 0.15% sodium hydrogencarbonate (hereinafter the medium is to be referred to as culture solution). After washing the bone marrow cavity and then removing the soft tissue adhered to the bone, the bone was subjected to incubation. The test compound was once dissolved in dimethyl sulfoxide (DMSO) to give a 10 mg/ml solution, which was diluted 1000-fold with the culture solution to give a 10 μg/ml solution. The test compounds were respectively added to the concentration shown in Table 7 and, using this culture solution (1.2 ml), the ICR mouse femoral bone was incubated in a 24 well plate for 6 days under the conditions of 5% CO2 gas, 95% air. After the completion of the incubation, the culture supernatant was recovered, and the amount of calcium suspending in the culture supernatant was quantitatively determined by the chelate method using o-cresolphthalein. The bone resorption inhibitory action of the test compound was calculated by the following formula using the incubation of the femoral bone without addition of the test compound as a control. [formula] This experiment was done with 4 cases in each group. As the control, the same amount of DMSO alone as in the case with the addition of the test compound was used.

The subject of test [2] is BALB/c spleen cells stimulated with C57BL/6 spleen cells. In words: Inhibition of mouse allogenic mixed lymphocyte reaction. As to conditions: 4 days culture, MTT, read-out: Mouse allogenic MLR inhibitory activity IC50. The class given is cell-based. The method, then:
Inhibition of Mouse Allogenic Mixed Lymphocyte Reaction
A mouse allogenic mixed lymphocyte reaction (hereinafter to be referred to as mouse allogenic MLR) was performed by mixed culture (equal ratio) of the spleen cell of BALB/c mice as the reaction cell and the spleen cell of C57BL/6 mice treated with mitomycin C as stimulated cell.
The reaction cells were prepared by the following method. Spleen was removed from 5-6 week old BALB/c mice and treated with RPMI1640 medium (containing kanamycin sulfate (60 μg/ml), penicillin G potassium (100 units/ml), N-2-hydroxyethylpiperazine-N′-2-ethanesulfonate (10 mM), 0.1% sodium hydrogencarbonate and L-glutamin (2 mM)) supplemented with 5% heat inactivated fetal bovine serum (FBS) to give a single cell suspension of the spleen cell. After hemolysis treatment, the suspension was adjusted to10^7 cells/ml with RPMI1640 medium containing 10^−4 M 2-mercaptoethanol and 10% FBS and used as a reaction cell suspension.
The reaction cell suspension (50 μl) prepared by the above method, stimulated cell suspension (50 μl) and the test compound (100 μl) prepared using RPMI1640 medium containing 10% FBS were added to a 96 well plate and incubated at 37° C. under 5% CO2 gas, 95% air for 4 days.
A pigment assay using 3-(4,5-dimethylthiazol-2-yl)-2,5-diphenyltetrazolium bromide (MTT) was applied for the determination of lymphocyte transformation reaction.
After the completion of culture, the supernatant (100 μl) in each well was removed, and 5 mg/ml MTT solution (20 μl) was added to each well, which was followed by incubation at 37° C. for 4 hours. Then, a 0.01 N hydrochloric acid solution (100 μl) containing 10% sodium dodecyl sulfate was added and the mixture was incubated at 37° C. overnight. The resulting purple crystals of formazan was dissolved and absorbance at 550 nm was measured using a microplate absorption meter, which was used as the index of lymphocyte transformation reaction of the mouse allogenic MLR. The inhibition of mouse allogenic MLR was evaluated by calculating the inhibition percentage by the following formula The results are shown in Table 7.

The next test relates to Human SK-Mel-28 melanoma. Description: Inhibition of cell growth of SK-Mel-28 melanoma. It is filed as cell-based. The conditions noted are these: 72 hours, MTT. The method, then: Inhibition of Cell Growth of SK-Mel-28 Melanoma
Human SK-Mel-28 melanoma (10^4 cells) and the test compound were suspended in RPMI1640 medium containing 100 μl of 10% FBS and incubated in a 96 well plate at 37° C. under 5% CO2 gas for 72 hours. After the incubation, 10 μl of MTT (5 mg/ml) was added to each well and the cells were incubated at 37° C. under 5% CO2 gas for 4 hours. Then, 10% sodium dodecyl sulfate and 0.01 N hydrochloric acid solution were each added by 10 μl to respective wells. After the plate was stood overnight, absorbance at 570 nm was measured using a microplate reader and the inhibition percentage (% cytotoxicity) was calculated by the following formula.
The cytotoxicity against human cultured tumor cells was confirmed by pigment method (Carmichael et al., Cancer Res., 47, 936-942, 1987: Mosman, J. Immunol. Methods, 65, 55-63, 1983) using 3-(4,5-dimethylthiazol-2-yl)-2,5-diphenyltetrazolium bromide (MTT).
The test compound was dissolved in dimethyl sulfoxide and diluted with RPMI 1640 medium before use. The final dimethyl sulfoxide concentration was adjusted to not more than 0.25%.

For test [3], the system named is hind limb skin blood flow. In words: Peripheral blood flow increasing action in STZ-induced diabetic rats. The class given is in vivo, rat. The conditions noted are these: intravenous, 1 μg. The procedure: Peripheral Blood Flow Increasing Action
Streptozotocin (STZ, 65 mg/kg) was intravenously injected to male SD rats (body weight 200-300 g) to prepare diabetic rats. One month later, STZ-induced diabetic rats were anesthetized with pentobarbital sodium and the blood flow in the hind limb skin was measured with laser blood flowmeter (ALF21R, Advance). The test compound was intravenously administered via catheter dwelled in the carotid arteries, and hind limb skin blood flow increasing action was observed. The blood flow increasing action of the test compound was expressed by increase percentage from the blood flow before administration.

The subject of test [4] is smooth muscle cell (SMC) from rat aorta. In words: Inhibition of growth of vascular smooth muscle cell. It is filed as cell-based. The conditions noted are these: 48 hours, MTT. The procedure: Inhibition of Growth of Vascular Smooth Muscle Cell
The separation from the artery of rat and culture of smooth muscle cell (SMC) followed the explant method of Ross (Ross, R. and Glomset, J. A., N. Engl. J. Med., 295, 369-420, 1976). Male wistar rats (10 week old) was slaughtered by cutting the carotid arteries and aorta of thorax was removed. After removal of fat tissues around the tunica externa and peeling of tunica intima, the artery was minced and incubated in 10% fetal bovine serum (FBS)-containing DMEM medium at 37° C. under 5% CO2 gas. Seven days later, the out-grown cells were separated by trypsin treatment, washed with phosphate-buffered saline (PBS) and incubated in 10% FBS-containing DMEM medium in a 80 cm^2 culture flask. The cells of subculture 2 were suspended in 10% FBS-containing DMEM medium at 5×10^4 cells/ml and 100 μl thereof per well was added to 96 well collagen-coated plate, which was incubated at 37° C. under 5% CO2 gas for one day. The test compound was appropriately diluted with dimethyl sulfoxide (DMSO) and added to the 96 well plate. The concentration of DMSO in the medium was adjusted to 1%. After 48 hours, 10 μl of MTT solution (5 mg/ml) was added and, 4 hours later, 10% sodium dodecyl sulfate-0.01 N hydrochloric acid (50 μl) was added. The absorbance at 570 nm was measured the following day by an immunoreader. The SMC growth inhibitory action of the test compound was shown by inhibition percentage calculated by the following formula The results are shown in Table 10.

In test [5] the test system is thoractic aorta ring contracted with phenylephrine. Description: Vasodilating action on phenylephrine-contracted thoracic aorta rings. The conditions noted are these: rabbit aortic ring, phenylephrine 10^−6 M contraction; concentration for 50% relaxation; read-out: Vasorelaxing action. The procedure:
Male rabbits (body weight 1.9-3.0 kg) were anesthetized with pentobarbital sodium and exsanguinated, whereafter thoractic aorta was removed. An about 2 mm width aortic ring samples were prepared and hung in a Magnus bath (40 ml) filled with Krebs-Henseleit solution (37° C., NaCl 117 mM; KCl 4.7 mM; CaCl2 2.5 mM; MgSO4 1.2 mM; NaHCO3 24.8 mM; KH2PO4 1.2 mM; glucose 11.0 mM) at a load of 2 g. The Magnus bath was constantly bubbled with a mixed gas (95% O2+5% CO2 gas). The tension of the preparation was measured with an isomeric transducer (TB-611T, Nippon Koden). The preparation was contracted with phenylephrine (10^−6 M) and, after the contraction was stabilized, the test compound was added accumulatively and relaxing action was observed.

The subject of test [6] is trachea specimen contracted with acetylcholine. In words: Effect on contraction by acetylcholine of trachea specimen removed from guinea pig. As to conditions: acetylcholine 10^−6 M contraction, 50% relaxation vs papaverine 10^−4 M maximum, read-out: Trachea relaxing action.
Protocol: Male Hartley guinea pigs (body weight 260-390 g) were anesthetized by the peritoneal administration of pentobarbital sodium (100 mg/kg) and exsanguinated, whereafter trachea was removed. The anterior cartilage of the trachea was opened and the band was cut in a 3 mm width strip to give a specimen. The specimen was hung in a Magnus bath (40 ml) filled with Krebs-Henseleit solution (NaCl 117 mM; KCl 4.7 mM; CaCl2 2.5 mM; MgSO4 1.2 mM; NaHCO3 24.8 mM; KH2PO4 1.2 mM; glucose 11.0 mM) at a load of 1 g. The Magnus bath was constantly bubbled with a mixed gas (95% O2+5% CO2 gas). The tension of the strip was measured with an isomeric transducer (TB-611T, Nippon Koden) and depicted on a recorder (Ti-102, Tokai Irika).
In test [7] the target is T1, Human Platelet Rho Kinase (p160ROCK) (Homo sapiens, UniProt Q13464).
T1 construct: Human platelet p160ROCK was isolated by the method of Ishizaki et al; from tissue; host or cells: human platelets
T1 sequence (Q13464 whole entry): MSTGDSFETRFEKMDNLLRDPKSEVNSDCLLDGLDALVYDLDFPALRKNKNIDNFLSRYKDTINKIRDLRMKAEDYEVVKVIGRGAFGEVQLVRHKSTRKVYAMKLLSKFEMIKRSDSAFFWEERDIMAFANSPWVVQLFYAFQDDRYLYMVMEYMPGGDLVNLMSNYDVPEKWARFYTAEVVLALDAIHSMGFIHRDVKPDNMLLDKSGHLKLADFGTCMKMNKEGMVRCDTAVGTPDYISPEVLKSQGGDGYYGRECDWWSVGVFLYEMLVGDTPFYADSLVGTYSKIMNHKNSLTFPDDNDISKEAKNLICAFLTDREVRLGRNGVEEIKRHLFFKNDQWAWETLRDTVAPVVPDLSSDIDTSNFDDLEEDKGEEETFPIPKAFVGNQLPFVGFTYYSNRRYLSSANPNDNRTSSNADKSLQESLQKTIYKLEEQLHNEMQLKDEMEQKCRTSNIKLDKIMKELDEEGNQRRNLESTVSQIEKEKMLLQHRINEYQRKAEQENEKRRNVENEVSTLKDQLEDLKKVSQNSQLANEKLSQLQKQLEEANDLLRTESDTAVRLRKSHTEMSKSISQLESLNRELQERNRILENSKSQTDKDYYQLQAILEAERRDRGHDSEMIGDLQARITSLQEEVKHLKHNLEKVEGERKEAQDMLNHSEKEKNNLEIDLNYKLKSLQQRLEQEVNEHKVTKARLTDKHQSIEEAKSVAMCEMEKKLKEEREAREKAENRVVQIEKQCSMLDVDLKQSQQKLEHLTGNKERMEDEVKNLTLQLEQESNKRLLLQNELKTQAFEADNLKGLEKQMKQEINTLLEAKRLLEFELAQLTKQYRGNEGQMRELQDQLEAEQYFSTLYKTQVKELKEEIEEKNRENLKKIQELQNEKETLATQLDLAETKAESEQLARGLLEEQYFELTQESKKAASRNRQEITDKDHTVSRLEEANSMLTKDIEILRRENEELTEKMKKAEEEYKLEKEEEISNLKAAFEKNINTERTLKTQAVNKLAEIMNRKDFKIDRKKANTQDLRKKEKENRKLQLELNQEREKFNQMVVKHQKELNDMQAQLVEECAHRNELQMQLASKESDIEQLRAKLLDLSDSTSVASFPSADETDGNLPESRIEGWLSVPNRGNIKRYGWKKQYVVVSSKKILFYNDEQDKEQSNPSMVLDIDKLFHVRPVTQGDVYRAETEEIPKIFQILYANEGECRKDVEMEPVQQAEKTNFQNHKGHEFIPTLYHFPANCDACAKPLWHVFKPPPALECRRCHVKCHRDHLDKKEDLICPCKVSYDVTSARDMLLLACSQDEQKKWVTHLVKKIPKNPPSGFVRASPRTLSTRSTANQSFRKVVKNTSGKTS
In words: Rho kinase inhibitory action (inhibition of human platelet Rho kinase (p160ROCK)). The class given is biochemical. The conditions noted are these: histone substrate, 1 μM ATP. The method, then: Rho Kinase Inhibitory Action (Inhibition of Human Platelet Rho Kinase (p160ROCK))
Kinase assay included the following steps. That is, a reaction mixture (total amount 30 μl) containing 50 mM Hepes-NaOH (pH=7.4), 10 mM MgCl2, 5 mM MnCl2, 2 mM dithiothreitol, 0.02% Brij35, 1 μM [γ-^32P]ATP, 330 μg/ml histone, p160ROCK (2 μl) isolated by the method of Ishizaki et al. and the test compound was incubated at 30° C. for 20 minutes. The solution was mixed with a 1/3 amount of 4× Laemmli sample buffer, boiled for 5 minutes and applied to SDS-PAGE. The gel was stained with Coomassie Brilliant Blue and dried. The band of histone was cut out and assayed for radioactivity.

Where a name gives a salt, the structure may show the parent alone. Read-outs that look alike come from different tables or passages of the source.

As for `CC(C)(N)[C@H]1CC[C@H](C(=O)Nc2ccnc3[nH]ccc23)CC1` [Compound 110.2HCl.H2O, trans-N-(1H-pyrrolo[2,3-b]pyridin-4-yl)-4-(11-amino-1-methylethyl)cyclohexanecarboxamide], the “Number of lumen (10 μM)” value in test [1] is given as 203%. The “Bone resorption inhibition % (μM)” value in the test with mouse femoral bone (100 μM) was 74.0(100) %. In addition, in test [2], the IC50 was determined as 1.1 µM. For `NC[C@H]1CC[C@H](C(=O)Nc2ncnc3[nH]ncc23)CC1` [Compound 115.2HBr.1/4H2O, trans-N-(1H-pyrazolo[3,4-d]pyrimidin-4-yl)-4-aminomethylcyclohexanecarboxamide], in the test on Human SK-Mel-28 melanoma, the IC50 worked out at 9 µM.

In turn, `N=C(N)NC[C@H]1CC[C@H](C(=O)Nc2ccnc3[nH]ccc23)CC1` [Compound 142.2HCl.H2O, trans-N-(1H-pyrrolo[2,3-b]pyridin-4-yl)-4-guanidinomethylcyclohexanecarboxamide] had an IC50 in the test on Human SK-Mel-28 melanoma of 59 µM. For the same compound, in the test with mouse femoral bone (144 h), the inhibition at 100 µM is 44.2%. On to `Cn1ccc2c(NC(=O)[C@H]3CC[C@H](CNC(=N)N)CC3)ccnc21` [Compound 145.2HCl.H2O, trans-N-(1-methylpyrrolo[2,3-b]pyridin-4-yl)-4-(guanidinomethyl)cyclohexanecarboxamide], for which the IC50 in the test with Human SK-Mel-28 melanoma was 62 µM. In the case of `C[C@@H](N)c1ccc(C(=O)Nc2ccncc2)cc1` [Compound 157.HCl.H2O, (R)-(+)-N-(4-pyridyl)-4-(1-aminoethyl)benzamide], the “Increase in skin blood flow ± standard error (%)” value in [3] came out at 211.6 ± 13.6%. For the same compound, in test [4], the IC50 was found to be 55 µM. As for `C[C@@H](N)c1ccc(C(=O)Nc2ccnc3[nH]ccc23)cc1N=[N+]=[N-]` [Compound 179.2HBr.1/2H2O, (R)-(−)-N-(1H-pyrrolo[2,3-b]pyridin-4-yl)-4-(1-aminoethyl)-3-azidebenzamide], the results for the IC50 in test [5] and in [6] were 0.03 µM and 0.029 µM, respectively. For the compound `CC1CNCCN1S(=O)(=O)c1cccc2cnccc12` (stereo not drawn) [Compound 308.2HCl, 1-(5-isoquinolinesulfonyl)-2-methylpiperazine], the IC50 in test [7] worked out at 5 µM; in test [2] (Mus musculus, Lymphocyte, 96 h), 13.9 µM. With `CCCCCCCCNC(=N)NC[C@H]1CC[C@H](C(=O)Nc2ccnc3[nH]ccc23)CC1` [compound 153.2HCl, trans-N-(1H-pyrrolo[2,3-b]pyridin-4-yl)-4-(3-octylguanidinomethyl)cyclohexanecarboxamide], the IC50 in test [4] stood at 27 µM. The same measure, in the same setting: the value for `C[C@@H](N)c1ccc(C(=O)Nc2ccncc2)cc1Cl` [compound 163.2HBr, (R)-(+)-N-(4-pyridyl)-4-(1-aminoethyl)-3-chlorobenzamide] was 63 µM.
